From patent US8722649B2, “Alpha-chloro and alpha-bromo phosphonate analogs of lysophosphatidic acid and methods of making and using thereof” (University of Utah Research Foundation, priority 2007, dated 2014)
“Also recorded” adds a separate entry of the source.

Key:
MDA-MB-231 cells [1] = test: Matrigel transwell invasion assay; type: cell-based; conditions: Homo sapiens, 24 h, read-out: inhibition of MDA-MB-231 invasion through Matrigel
Protocol: Inhibition of invasion. The invasive behavior of cells was determined in vitro by using 24-well transwell inserts with an 8 μm pore size PET membrane which were coated with Matrigel basement membrane matrix. A suspension of cells (100 μL of 5×10^4) in serum-free medium with or without 10 μM syn-BrP-LPA la or anti-BrP-LPA 1b was added to triplicate inserts, and 600 μL medium supplemented with serum was used as a chemoattractant in the lower chamber. […] Ten fields of cells were counted for each well, and the mean number of cells per field was calculated. Each experiment was performed in triplicate and repeated at least twice.

MDA-MB-231 cells [2] = test: Scratch wound healing migration assay; type: cell-based; conditions: for MDA-MB-231 cell migration in words: 10 and 40 μM, 24 h
Protocol: Inhibition of migration. MDA-MB-231 cells were plated in triplicate into six-well plates at a concentration of 3×10^5 cells per well. Approximately 48 hours later, the confluent cells were carefully scratched using sterile pipette tips. Nonadherent cells and cellular debris were removed by washing with PBS. Fresh medium with or without various concentrations of BrP-LPA 1, syn-BrP-LPA 1a, or anti-BrP-LPA 1b (1-100 μM) were added to the wounded monolayers. Cells were observed under the microscope and digitally photographed at different times. Inhibition of migration was assessed when the wound in the control was closed and quantified by using ImageJ.

MDA-MB-231 cells [3] = test: Orthotopic breast cancer xenograft; type: in vivo, nude mice; conditions: 3 mg/kg i.p., relative to control group
Protocol: Orthotopic Human Breast Cancer Models. 4-week-old female athymic nude mice (Charles River Laboratories) were anesthetized by intraperitoneal injection of ketamine (80 mg/kg) and xylazine (10 mg/kg),according to the protocol approved by the University of Utah Institutional Animal Care and Use Committee (IACUC). Then the thoracic skin was sterilized with iodine and alcohol swabs.
MDA-MB-231 were trypsinized and resuspended in 2.5% CMHA-S and 3% gelatin-DTPH (v:v=1:1). Then, one volume of 4% PEGDA solution was added to four volumes of the cell suspension, and the resulting suspension was mixed gently by vortexing. The final cell concentration was 5×10^7 cells/ml. When the cell suspension was becoming viscous (ca. 3-5 min at 20° C.), 200 uL of gel was injected subcutaneously into the fourth mammary fat pad of each mouse, using a total of six mice per group.
The assessment of chemotherapy on breast cancer. The mice were randomly divided into 4 groups, including control (physiological saline), paclitaxel, LPA antagonist (19b), and paclitaxel followed by 19b. Six mice for each cell line were necessary to get statistically significant results according to literature. The control group received physiological saline i.p. injection twice per week starting at two weeks after the cell transplantation and ending at two weeks after the treatment. The treatment groups received i.p. administration of paclitaxel (10 mg/kg/day) or 19b (10 mg/kg/day) twice per week with the same period of control group. One additional group included 2 dose of paclitaxel followed by 2 dose of 19b with the same period of control group. The treatment was received […] twice per week for 2 weeks total.
The body weight and tumor size were measured twice per week, and general clinical status of the animals was also assessed every day. Perpendicular tumor diameters were measured using a vernier scale caliper and tumor volume estimated using the formula for ellipsoid: […] (mm^3)=[width(mm)^2×length(mm)]/2. Data are expressed as median tumor areas with interquartile ranges.
Animals were euthanized at 4 weeks postinjection or once any signs of broken skin caused by the extension of tumor are found. Tumors were excised with surrounding tissues for histological evaluation. Analysis of variance was used to analyze the statistical difference on tumor growth between different groups. The results are in FIG. 8, where it is shown that the volume of the tumors is the lowest when mice were treated with paclitaxel followed by the administration of 19b.
Xenograft establishment and chemotherapy. […] The tumor sizes were measured and calculated by formula: tumor size (mm^3)=[width (mm)]^2×[length (mm)]/2. […]

HCT 116 cells = test: HCT 116 proliferation (MTS); type: cell-based; conditions: 2, 10, 20 μM, 72 h
Source text: Effects of bromo-LPA analogs on HCT 116 proliferation. HCT 116 cells were purchased from the American Type Culture Collection (Manassas, Mass.). Medium and reagents were obtained from the following sources: McCoy's 5a Medium (ATCC, Manassas, Va.); Penicillin-Streptomycin (MP biomedicals, Solon, Ohio); Fetal bovine serum (ATCC, Manassas, Mass.); Accutase (MP biomedicals, Solon, Ohio); MTS (Promega, Madison, Wis.); Matrigel (Becton Dickinson Labware, Cambridge, Mass.); Extracel (Glycosan, Salt Lake City, Utah). Lysophosphatidic acid receptor pan-Antagonist (LPAa)—the pure diastereomers 1a and 1b, and the mixed diastereomers 1 (University of Utah, Salt Lake City, Utah).
HCT 116 cells were maintained in McCoy's 5a medium supplemented with 10% FBS, 100 μg/ml streptomycin, and 100 units/ml penicillin at 37° C. in 95% air, 5% CO2. 4,000HCT-116 cells were seeded in 100 μl media in each well of 96-well flat-bottomed microplates (BD Labware, N.J.). The pure diastereomers 1a and 1b, and the mixed diastereomers 1 were added at various final concentrations (2 μM, 10 μM, 20 μM) to each column. At 72 h, pipet 20 μl MTS (Promega, Madison, Wis.) into each well, and cells were further incubated for 2 h. The absorbance of the samples at 490 nm was measured using a 96-well plate reader (OPTI max, Sunnyvale, Calif.).

| SMILES | inhibition at 10 µM (MDA-MB-231 cells [1]) | MDA-MB-231 cell migration in words (MDA-MB-231 cells [2]) | tumor volume, separate diastereomers (MDA-MB-231 cells [3]) | decrease of MDA-MB-231 cell migration (MDA-MB-231 cells [2]; 40 μM, compared to control, scratch wound) | HCT 116 cell proliferation (HCT 116 cells) |
| --- | --- | --- | --- | --- | --- |
| CCCCCCCCCCCCCCCC(=O)OC[C@@H](O)C[C@@H](Br)P(=O)(O)O [Compound 1a] | ~52% | inhibited the MDA-MB-231 cell migration | significantly decreased the tumor volume; also recorded: reduces tumor size |  |  |
| CCCCCCCCCCCCCCCC(=O)OC[C@@H](O)C[C@H](Br)P(=O)(O)O [Compound 1b] | ~52% | inhibited the MDA-MB-231 cell migration | significantly decreased the tumor volume; also recorded: reduces tumor size | 57% | highly suppressed; also recorded: dose-dependent inhibition |
